Toxic doses and inconclusive results are not listed.
System: L1210 leukemia ip in BDF1 mice, survival T/C
Assay: NCI In Vivo Anticancer Drug Screen. Data for tumor model L1210 Leukemia (intraperitoneal) in B6D2F1 (BDF1) mice
Conditions: endpoint: mean survival time, higher = longer survival
Summary of the method: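 Ratio derived from survival: compound-dosed mice over vehicle-dosed mice, all bearing a transplantable tumor.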

[1] = dose: 100.0 mg/kg/injection, schedule: Q01DX009 (ip), vehicle: saline with Tween-80
[2] = dose: 200.0 mg/kg/injection, schedule: Q01DX009 (ip), vehicle: saline with Tween-80
[3] = dose: 6.25 mg/kg/injection, schedule: Q04DX003 (ip), vehicle: saline
[4] = dose: 12.5 mg/kg/injection, schedule: Q04DX003 (ip), vehicle: saline
[5] = dose: 25.0 mg/kg/injection, schedule: Q04DX003 (ip), vehicle: saline

Compound: CC1CN1C(=O)OCCOC(=O)N1CC1C (stereo not given)
- T/C (dose: 200.0 mg/kg/injection, schedule: Q01DX Z (ip), vehicle: saline): 108 % of control
- T/C (dose: 444.0 mg/kg/injection, schedule: Q01DX009 (ip), vehicle: saline): 104 % of control
- T/C (dose: 450.0 mg/kg/injection, schedule: Q01DX Z (ip), vehicle: saline): 188 % of control
- T/C (dose: 666.0 mg/kg/injection, schedule: Q01DX009 (ip), vehicle: saline): 107 % of control
- T/C (dose: 675.0 mg/kg/injection, schedule: Q01DX Z (ip), vehicle: saline): 195 % of control
- T/C (dose: 750.0 mg/kg/injection, schedule: Q01DX001 (ip), vehicle: saline): 117 % of control
- T/C (dose: 1000.0 mg/kg/injection, schedule: Q01DX009 (ip), vehicle: saline): 115 % of control
- T/C (dose: 1500.0 mg/kg/injection, schedule: Q01DX001 (ip), vehicle: saline): 106 % of control
- T/C (dose: 1500.0 mg/kg/injection, schedule: Q01DX009 (ip), vehicle: saline): 96 % of control

Compound: CCCNC(C)(C)C(SSSC(c1ccc(C(F)(F)F)cc1)C(C)(C)NCCC)c1ccc(C(F)(F)F)cc1 (stereo not given)
- T/C [1]: 96 % of control
- T/C [2]: 100 % of control

Compound: CN(C)c1nnnn1-c1ccccc1
- T/C (dose: 100.0 mg/kg/injection, schedule: Q04DX003 (ip), vehicle: saline): 100 % of control
- T/C (dose: 200.0 mg/kg/injection, schedule: Q04DX003 (ip), vehicle: saline): 96 % of control
- T/C (dose: 400.0 mg/kg/injection, schedule: Q04DX003 (ip), vehicle: saline): 105 % of control

Compound: CC(C)NC(=O)c1cc(NC(=O)c2ccc(C(=O)Nc3cc(C(=O)NC(C)C)cc(C4=NCCN4)c3)cc2)cc(C2=NCCN2)c1
- T/C (dose: 2.5 mg/kg/injection, schedule: Q01DX015 (ip), vehicle: water): 89 % of control
- T/C (dose: 5.0 mg/kg/injection, schedule: Q01DX015 (ip), vehicle: water): 97 % of control
- T/C (dose: 10.0 mg/kg/injection, schedule: Q01DX015 (ip), vehicle: water): 92 % of control
- T/C (dose: 18.75 mg/kg/injection, schedule: Q01DX015 (ip), vehicle: water): 101 % of control
- T/C (dose: 20.0 mg/kg/injection, schedule: Q01DX015 (ip), vehicle: water): 95 % of control
- T/C (dose: 37.5 mg/kg/injection, schedule: Q01DX015 (ip), vehicle: water): 96 % of control

Compound: COc1cc(/C=C/c2ccnc3ccccc23)cc(OC)c1OC
- T/C (dose: 5.0 mg/kg/injection, schedule: Q01DX001 (ip), vehicle: saline): 96 % of control
- T/C (dose: 10.0 mg/kg/injection, schedule: Q01DX001 (ip), vehicle: saline): 102 % of control
- T/C (dose: 20.0 mg/kg/injection, schedule: Q01DX001 (ip), vehicle: saline): 102 % of control
- T/C (dose: 40.0 mg/kg/injection, schedule: Q01DX001 (ip), vehicle: saline): 91 % of control

Compound: O=C1C(=O)c2ccccc2C(O)=C1C(C1=C(O)c2ccccc2C(=O)C1=O)c1ccc(Cl)cc1
- T/C (dose: 75.0 mg/kg/injection, schedule: Q01DX001 (ip), vehicle: saline): 86 % of control
- T/C (dose: 150.0 mg/kg/injection, schedule: Q01DX001 (ip), vehicle: saline): 86 % of control
- T/C (dose: 300.0 mg/kg/injection, schedule: Q01DX001 (ip), vehicle: saline): 86 % of control

Compound: CCOC(=O)c1ccc(NC(=O)Nc2ccc(SC)cc2)cc1N(CC)CC
- T/C [1]: 104 % of control
- T/C [2]: 94 % of control
- T/C (dose: 400.0 mg/kg/injection, schedule: Q01DX009 (ip), vehicle: saline with Tween-80): 92 % of control

Compound: CCOC(=O)N(O)c1ccc(/C=C/c2ccccc2)cc1
- T/C (dose: 100.0 mg/kg/injection, schedule: Q01DX001 (ip), vehicle: carboxymethylcellulose (CMC)): 98 % of control
- T/C (dose: 200.0 mg/kg/injection, schedule: Q01DX001 (ip), vehicle: carboxymethylcellulose (CMC)): 93 % of control
- T/C (dose: 400.0 mg/kg/injection, schedule: Q01DX001 (ip), vehicle: carboxymethylcellulose (CMC)): 98 % of control

Compound: CN(C)CCCN1c2ccccc2Sc2ccc(F)cc21
- T/C (dose: 3.12 mg/kg/injection, schedule: Q04DX003 (ip), vehicle: saline): 94 % of control
- T/C [3]: 97 % of control
- T/C [4]: 108 % of control
- T/C [5]: 111 % of control

Compound: CCCCCCCCCCCC[N+](C)(C)CCn1cnc2c(N)ncnc21
- T/C [3]: 106 % of control
- T/C [4]: 109 % of control
- T/C [5]: 103 % of control

Compound: Cc1c2oc3c(C)ccc(C(=O)NCCN4CCOCC4)c3nc-2c(C(=O)NCCN2CCOCC2)c(N)c1=O
- T/C (dose: 100.0 mg/kg/injection, schedule: Q04DX002 (ip), vehicle: saline with Tween-80): 98 % of control
- T/C (dose: 200.0 mg/kg/injection, schedule: Q04DX002 (ip), vehicle: saline with Tween-80): 92 % of control

Compound: CCCCCCCCCCCCCCCC1CCCC(C)N1 (stereo not given)
- T/C (dose: 6.25 mg/kg/injection, schedule: Q04DX002 (ip), vehicle: saline with Tween-80): 104 % of control
- T/C (dose: 12.5 mg/kg/injection, schedule: Q04DX002 (ip), vehicle: saline with Tween-80): 96 % of control
- T/C (dose: 25.0 mg/kg/injection, schedule: Q04DX002 (ip), vehicle: saline with Tween-80): 100 % of control

Source: PubChem BioAssay AID248 (DTP/NCI, 2004)
